According to patent US10364263B2, “Cyclic phosphates and cyclic phosphoramidates for the treatment of neurologic disorders” (Retrophin, Inc., priority 2015, dated 2019):

system: PANK2 silenced human neuroblastoma IMR32 cells (PANK2−/−); experiment: Coenzyme A assay in PANK2 silenced cells (LC-MS quantification of free CoA); format: cell-based; conditions: compound added twice (24 h + 24 h), relative to 0.1% DMSO controls
In short: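 Free intracellular CoA was measured by positive-mode LC-MS/MS of 20% TFA extracts, taking 2 μl per 10^6 cells as intracellular volume. Cells were IMR32 with stable lentiviral PANK2 knockdown, dosed twice 24 h apart (48 h total, 0.1% DMSO). Output is fold increase over vehicle.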

Going from `COC(=O)CCNC(=O)[C@@H]1O[P@@](=O)(Oc2ccc(C[C@H](N)C(=O)OC)cc2)OCC1(C)C` (single isomer, unassigned) [2-162] to `COC(=O)CCNC(=O)[C@@H]1O[P@](=O)(Oc2ccc(F)cc2)OCC1(C)C` [2-179, methyl 3-((2R,4R)-2-(4-fluorophenoxy)-5,5-dimethyl-2-oxido-1,3,2-dioxaphosphinane-4-carboxamido)propanoate], the “PANK2−/− CoA (Fold Increase): fold increase in Coenzyme A (CoA) levels relative to controls” value rises from 9.73 Fold Increase to 87.22 Fold Increase.

Going from `COC(=O)CCNC(=O)[C@@H]1O[P@@](=O)(Oc2ccc(S(F)(F)(F)(F)F)cc2)OCC1(C)C` [2-124, methyl 3-((2S,4R)-5,5-dimethyl-2-oxido-2-(4-(pentafluoro-16-sulfanyl)phenoxy)-1,3,2-dioxaphosphinane-4-carboxamido)propanoate] to `COC(=O)CCNC(=O)[C@@H]1O[P@](=O)(Oc2ccc(C#N)cc2)OCC1(C)C` [2-165, methyl 3-((2R,4R)-2-(4-cyanophenoxy)-5,5-dimethyl-2-oxido-1,3,2-dioxaphosphinane-4-carboxamido)propanoate], the “PANK2−/− CoA (Fold Increase): fold increase in Coenzyme A (CoA) levels relative to controls” value rises from 1.12 Fold Increase to 6.87 Fold Increase.

First: COC(=O)CCNC(=O)[C@@H]1OP(=O)(OCOC(=O)[C@@H]2COC(=O)N2C(=O)OC(C)(C)C)OCC1(C)C (stereo partly drawn) [2-189, 3-(tert-butyl) 4-((((4R)-4-((3-methoxy-3-oxopropyl)carbamoyl)-5,5-dimethyl-2-oxido-1,3,2-dioxaphosphinan-2-yl)oxy)methyl) (4S)-2-oxooxazolidine-3,4-dicarboxylate]
Second: COC(=O)CCNC(=O)[C@@H]1OP(=O)(OCOC(=O)[C@H]2COC(=O)N2C(=O)OC(C)(C)C)OCC1(C)C (stereo partly drawn) [2-196, 3-(tert-butyl) 4-((((4R)-4-((3-methoxy-3-oxopropyl)carbamoyl)-5,5-dimethyl-2-oxido-1,3,2-dioxaphosphinan-2-yl)oxy)methyl) (4R)-2-oxooxazolidine-3,4-dicarboxylate]
The “PANK2−/− CoA (Fold Increase): fold increase in Coenzyme A (CoA) levels relative to controls” value of the first is higher: 3.86 Fold Increase for the first, 1.97 Fold Increase for the second.

Compared with `COC(=O)CCNC(=O)[C@@H]1O[P@@](=O)(OCOC(=O)c2cnco2)OCC1(C)C` (single isomer, unassigned) [2-151], `COC(=O)CCNC(=O)[C@@H]1O[P@](=O)(OCOC(=O)c2sncc2C)OCC1(C)C` [2-177, (((2R,4R)-4-((3-methoxy-3-oxopropyl)carbamoyl)-5,5-dimethyl-2-oxido-1,3,2-dioxaphosphinan-2-yl)oxy)methyl 4-methylisothiazole-5-carboxylate] is higher in “PANK2−/− CoA (Fold Increase): fold increase in Coenzyme A (CoA) levels relative to controls” value: 17.56 Fold Increase for the first, 77.18 Fold Increase for the second.

Going from `CCN(CC)C(=O)[C@H](Cc1ccccc1)NC(=O)OCOP1(=O)OCC(C)(C)[C@H](C(=O)NCCC(=O)OC)O1` (stereo partly drawn) [2-135, methyl 3-((4R)-2-(((((S)-1-(diethylamino)-1-oxo-3-phenylpropan-2-yl)carbamoyl)oxy)methoxy)-5,5-dimethyl-2-oxido-1,3,2-dioxaphosphinane-4-carboxamido)propanoate] to `COC(=O)CCNC(=O)[C@@H]1O[P@@](=O)(OCOC(=O)N[C@@H](CSC(=O)C(C)(C)C)C(=O)O)OCC1(C)C` [2-200, N-(((((2S,4R)-4-((3-methoxy-3-oxopropyl)carbamoyl)-5,5-dimethyl-2-oxido-1,3,2-dioxaphosphinan-2-yl)oxy)methoxy)carbonyl)-S-pivaloyl-L-cysteine], the “PANK2−/− CoA (Fold Increase): fold increase in Coenzyme A (CoA) levels relative to controls” value rises from 1.7 Fold Increase to 1.84 Fold Increase.

Compared with `COC(=O)CCNC(=O)[C@@H]1OP(=O)(OCOC(=O)NCCOC(C)=O)OCC1(C)C` (stereo partly drawn) [2-168, methyl 3-((4R)-2-((((2-acetoxyethyl)carbamoyl)oxy)methoxy)-5,5-dimethyl-2-oxido-1,3,2-dioxaphosphinane-4-carboxamido)propanoate], `COC(=O)CCNC(=O)[C@@H]1O[P@@](=O)(OCCNC(C)=O)OCC1(C)C` [2-115, methyl 3-((2R,4R)-2-(2-acetamidoethoxy)-5,5-dimethyl-2-oxido-1,3,2-dioxaphosphinane-4-carboxamido)propanoate] is lower in “PANK2−/− CoA (Fold Increase): fold increase in Coenzyme A (CoA) levels relative to controls” value: 2.69 Fold Increase for the first, 1.6 Fold Increase for the second.

Compared with `COC(=O)CCNC(=O)[C@@H]1O[P@@](=O)(OCn2ccnc2)OCC1(C)C` [2-132, methyl 3-((2S,4R)-2-((1H-imidazol-1-yl)methoxy)-5,5-dimethyl-2-oxido-1,3,2-dioxaphosphinane-4-carboxamido)propanoate], `COC(=O)CCNC(=O)[C@@H]1OP(=O)(OCCN2CCOCC2=O)OCC1(C)C` (stereo partly drawn) [2-114, methyl 3-((4R)-5,5-dimethyl-2-oxido-2-(2-(3-oxomorpholino)ethoxy)-1,3,2-dioxaphosphinane-4-carboxamido)propanoate] is higher in “PANK2−/− CoA (Fold Increase): fold increase in Coenzyme A (CoA) levels relative to controls” value: 0.93 Fold Increase for the first, 1.87 Fold Increase for the second.

First: CC(C)OC(=O)OCOP1(=O)OCC(C)(C)[C@H](C(=O)NCCC(=O)O)O1 (stereo partly drawn) [Compound No. 104, 3-((4R)-2-(((isopropoxycarbonyl)oxy)methoxy)-5,5-dimethyl-2-oxido-1,3,2-dioxaphosphinane-4-carboxamido)propanoic acid]
Second: CC(C)OC(=O)OCO[P@@]1(=O)OCC(C)(C)[C@H](C(=O)NCCC(=O)OC(C)(C)C)O1 [compound 105, tert-butyl 3-((2S,4R)-2-(((isopropoxycarbonyl)oxy)methoxy)-5,5-dimethyl-2-oxido-1,3,2-dioxaphosphinane-4-carboxamido)propanoate]
The “PANK2−/− CoA (Fold Increase): fold increase in Coenzyme A (CoA) levels relative to controls” value of the first is higher: 75.24 Fold Increase for the first, 4.72 Fold Increase for the second.

First: COC(=O)CCNC(=O)[C@@H]1OP(=O)(Oc2ccc([N+](=O)[O-])cc2)OCC1(C)C (stereo partly drawn) [Compound No. 2-134, Methyl 3-((4R)-5,5-dimethyl-2-(4-nitrophenoxy)-2-oxido-1,3,2-dioxaphosphinane-4-carboxamido)propanoate]
Second: COC(=O)CCNC(=O)[C@@H]1OP(=O)(Oc2ccc(C(F)(F)F)nc2)OCC1(C)C (stereo partly drawn) [2-122, methyl 3-((4R)-5,5-dimethyl-2-oxido-2-((6-(trifluoromethyl)pyridin-3-yl)oxy)-1,3,2-dioxaphosphinane-4-carboxamido)propanoate]
The “PANK2−/− CoA (Fold Increase): fold increase in Coenzyme A (CoA) levels relative to controls” value of the first is higher: 5.37 Fold Increase for the first, 1.21 Fold Increase for the second.

Going from `CC(C)(C)C(=O)OCOP1(=O)OCC(C)(C)[C@H](C(=O)NCCC(=O)OCc2ccncc2)O1` (stereo partly drawn) [Compound No. 101, (((4R)-5,5-dimethyl-2-oxido-4-((3-oxo-3-(pyridin-4-ylmethoxy)propyl)carbamoyl)-1,3,2-dioxaphosphinan-2-yl)oxy)methyl pivalate] to `COC(=O)CCNC(=O)[C@@H]1O[P@@](=O)(OCOC(=O)c2cc(C(C)(C)C)nn2C)OCC1(C)C` [2-169, (((2S,4R)-4-((3-methoxy-3-oxopropyl)carbamoyl)-5,5-dimethyl-2-oxido-1,3,2-dioxaphosphinan-2-yl)oxy)methyl 3-(tert-butyl)-1-methyl-1H-pyrazole-5-carboxylate], the “PANK2−/− CoA (Fold Increase): fold increase in Coenzyme A (CoA) levels relative to controls” value falls from 81.66 Fold Increase to 20.26 Fold Increase.

First: COC(=O)CCNC(=O)[C@@H]1O[P@](=O)(OCOC(=O)c2cc(C)nn2C)OCC1(C)C [2-190, (((2R,4R)-4-((3-methoxy-3-oxopropyl)carbamoyl)-5,5-dimethyl-2-oxido-1,3,2-dioxaphosphinan-2-yl)oxy)methyl 1,3-dimethyl-1H-pyrazole-5-carboxylate]
Second: COC(=O)CCNC(=O)[C@@H]1O[P@@](=O)(OCOC(=O)c2sncc2C)OCC1(C)C [2-176, (((2S,4R)-4-((3-methoxy-3-oxopropyl)carbamoyl)-5,5-dimethyl-2-oxido-1,3,2-dioxaphosphinan-2-yl)oxy)methyl 4-methylisothiazole-5-carboxylate]
The “PANK2−/− CoA (Fold Increase): fold increase in Coenzyme A (CoA) levels relative to controls” value of the first is lower: 52.24 Fold Increase for the first, 53.24 Fold Increase for the second.

For `COC(=O)CCNC(=O)[C@@H]1O[P@@](=O)(OCOC(=O)NC(C)(C)COC(=O)[C@@H](N)C(C)C)OCC1(C)C` [2-158, 2-((((((2S,4R)-4-((3-methoxy-3-oxopropyl)carbamoyl)-5,5-dimethyl-2-oxido-1,3,2-dioxaphosphinan-2-yl)oxy)methoxy)carbonyl)amino)-2-methylpropyl L-valinate], the “PANK2−/− CoA (Fold Increase): fold increase in Coenzyme A (CoA) levels relative to controls” value was 2.72 Fold Increase.
